Test results taken from US20100242139A1, “XENOHORMESIS BASED COMPOSITIONS AND METHODS” (President and Fellows of Harvard College, priority 2006, published 2010).

Key:
Abl(h) = Abl(h) (Homo sapiens, UniProt P00519); experiment: kinase panel activity, Abl(h); type: biochemical; settings: compound at 20 μM; vs reference with no compound
Abl(T315I)(h) = Abl(T315I)(h) (Homo sapiens, UniProt P00519, T315I); experiment: kinase panel activity, Abl(T315I)(h); type: biochemical; settings: compound at 20 μM; vs reference with no compound
Flt3(h) = Flt3(h) (Homo sapiens, UniProt P36888); experiment: kinase panel activity, Flt3(h); type: biochemical; settings: compound at 20 μM; vs reference with no compound
IR(h) = IR(h) (Homo sapiens, UniProt P06213); experiment: kinase panel activity, IR(h); type: biochemical; settings: compound at 20 μM; vs reference with no compound
JAK2(h) = JAK2(h) (Homo sapiens, UniProt O60674); experiment: kinase panel activity, JAK2(h); type: biochemical; settings: compound at 20 μM; vs reference with no compound
PAK2(h) = PAK2(h) (Homo sapiens, UniProt Q13177); experiment: kinase panel activity, PAK2(h); type: biochemical; settings: compound at 20 μM; vs reference with no compound
PAK3(h) = PAK3(h) (Homo sapiens, UniProt O75914); experiment: kinase panel activity, PAK3(h); type: biochemical; settings: compound at 20 μM; vs reference with no compound
PDK1(h) = PDK1(h) (Homo sapiens, UniProt O15530); experiment: kinase panel activity, PDK1(h); type: biochemical; settings: compound at 20 μM; vs reference with no compound
Pim-1(h) = Pim-1(h) (Homo sapiens, UniProt P11309); experiment: kinase panel activity, Pim-1(h); type: biochemical; settings: compound at 20 μM; vs reference with no compound
PKCβI(h) = PKCβI(h) (Homo sapiens, UniProt P05771); experiment: kinase panel activity, PKCβI(h); type: biochemical; settings: compound at 20 μM; vs reference with no compound
PKCγ(h) = PKCγ(h) (Homo sapiens, UniProt P05129); experiment: kinase panel activity, PKCγ(h); type: biochemical; settings: compound at 20 μM; vs reference with no compound
PKCδ(h) = PKCδ(h) (Homo sapiens, UniProt Q05655); experiment: kinase panel activity, PKCδ(h); type: biochemical; settings: compound at 20 μM; vs reference with no compound
PKCθ(h) = PKCθ(h) (Homo sapiens, UniProt Q04759); experiment: kinase panel activity, PKCθ(h); type: biochemical; settings: compound at 20 μM; vs reference with no compound
PKCζ(h) = PKCζ(h) (Homo sapiens, UniProt Q05513); experiment: kinase panel activity, PKCζ(h); type: biochemical; settings: compound at 20 μM; vs reference with no compound
PKD2(h) = PKD2(h) (Homo sapiens, UniProt Q9BZL6); experiment: kinase panel activity, PKD2(h); type: biochemical; settings: compound at 20 μM; vs reference with no compound
Rsk2(h) = Rsk2(h) (Homo sapiens, UniProt P51812); experiment: kinase panel activity, Rsk2(h); type: biochemical; settings: for percent activity of Rsk2(h): compound at 20 μM, vs reference with no compound
SGK(h) = SGK(h) (Homo sapiens, UniProt O00141); experiment: kinase panel activity, SGK(h); type: biochemical; settings: compound at 20 μM; vs reference with no compound
IRS-1 = IRS-1 expression and phosphorylation on a high calorie diet; type: in vivo
From the text: In addition, IRS-1 is phosphorylated at serine 307 (referred to PIRS-1).

FL5.12 cells = experiment: growth of hematopoietic cell line FL5.12; type: cell-based; settings: 0.1, 1, 10 and 100 μM for 24 hours; in the presence of IL-3; Coulter counter
From the text: Hematopoietic cell line FL5.12 cells were seed at equal density and grown in the presence of IL-3, a growth factor.

Sequence of Rsk2(h) (P51812 whole entry): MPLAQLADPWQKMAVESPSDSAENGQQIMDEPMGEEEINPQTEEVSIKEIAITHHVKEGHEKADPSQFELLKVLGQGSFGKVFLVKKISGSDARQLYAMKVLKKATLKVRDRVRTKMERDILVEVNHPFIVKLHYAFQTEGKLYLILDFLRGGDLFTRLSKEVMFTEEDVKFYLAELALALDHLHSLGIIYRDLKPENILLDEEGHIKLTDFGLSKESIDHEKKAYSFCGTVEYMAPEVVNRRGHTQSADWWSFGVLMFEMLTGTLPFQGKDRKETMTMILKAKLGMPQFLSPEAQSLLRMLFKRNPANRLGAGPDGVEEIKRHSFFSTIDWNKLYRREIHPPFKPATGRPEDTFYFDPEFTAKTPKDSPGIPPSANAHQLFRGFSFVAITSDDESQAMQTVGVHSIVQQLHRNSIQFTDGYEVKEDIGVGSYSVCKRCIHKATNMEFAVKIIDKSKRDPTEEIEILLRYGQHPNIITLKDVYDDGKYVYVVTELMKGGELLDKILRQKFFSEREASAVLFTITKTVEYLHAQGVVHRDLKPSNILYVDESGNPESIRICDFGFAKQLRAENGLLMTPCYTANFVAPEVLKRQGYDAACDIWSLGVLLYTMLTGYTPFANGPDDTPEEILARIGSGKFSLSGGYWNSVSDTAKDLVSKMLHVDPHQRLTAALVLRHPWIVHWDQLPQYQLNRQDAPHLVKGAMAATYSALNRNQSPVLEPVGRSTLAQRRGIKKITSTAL
Sequence of PDK1(h) (O15530 whole entry): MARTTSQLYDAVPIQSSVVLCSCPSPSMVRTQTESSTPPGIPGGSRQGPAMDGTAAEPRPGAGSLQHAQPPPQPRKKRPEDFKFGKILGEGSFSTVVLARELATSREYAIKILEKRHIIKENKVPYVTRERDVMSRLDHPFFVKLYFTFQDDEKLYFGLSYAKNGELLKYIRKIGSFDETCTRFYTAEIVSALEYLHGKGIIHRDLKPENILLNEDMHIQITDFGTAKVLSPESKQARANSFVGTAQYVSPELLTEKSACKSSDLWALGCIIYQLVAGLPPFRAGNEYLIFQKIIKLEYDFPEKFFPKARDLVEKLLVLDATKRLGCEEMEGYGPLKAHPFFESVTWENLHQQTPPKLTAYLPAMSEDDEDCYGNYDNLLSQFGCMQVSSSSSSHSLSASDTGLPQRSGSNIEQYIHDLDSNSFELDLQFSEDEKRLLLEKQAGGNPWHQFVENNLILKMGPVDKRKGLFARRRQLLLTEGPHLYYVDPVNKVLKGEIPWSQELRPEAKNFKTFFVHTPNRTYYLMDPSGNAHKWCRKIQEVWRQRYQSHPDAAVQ
Sequence of IR(h) (P06213 28-1382): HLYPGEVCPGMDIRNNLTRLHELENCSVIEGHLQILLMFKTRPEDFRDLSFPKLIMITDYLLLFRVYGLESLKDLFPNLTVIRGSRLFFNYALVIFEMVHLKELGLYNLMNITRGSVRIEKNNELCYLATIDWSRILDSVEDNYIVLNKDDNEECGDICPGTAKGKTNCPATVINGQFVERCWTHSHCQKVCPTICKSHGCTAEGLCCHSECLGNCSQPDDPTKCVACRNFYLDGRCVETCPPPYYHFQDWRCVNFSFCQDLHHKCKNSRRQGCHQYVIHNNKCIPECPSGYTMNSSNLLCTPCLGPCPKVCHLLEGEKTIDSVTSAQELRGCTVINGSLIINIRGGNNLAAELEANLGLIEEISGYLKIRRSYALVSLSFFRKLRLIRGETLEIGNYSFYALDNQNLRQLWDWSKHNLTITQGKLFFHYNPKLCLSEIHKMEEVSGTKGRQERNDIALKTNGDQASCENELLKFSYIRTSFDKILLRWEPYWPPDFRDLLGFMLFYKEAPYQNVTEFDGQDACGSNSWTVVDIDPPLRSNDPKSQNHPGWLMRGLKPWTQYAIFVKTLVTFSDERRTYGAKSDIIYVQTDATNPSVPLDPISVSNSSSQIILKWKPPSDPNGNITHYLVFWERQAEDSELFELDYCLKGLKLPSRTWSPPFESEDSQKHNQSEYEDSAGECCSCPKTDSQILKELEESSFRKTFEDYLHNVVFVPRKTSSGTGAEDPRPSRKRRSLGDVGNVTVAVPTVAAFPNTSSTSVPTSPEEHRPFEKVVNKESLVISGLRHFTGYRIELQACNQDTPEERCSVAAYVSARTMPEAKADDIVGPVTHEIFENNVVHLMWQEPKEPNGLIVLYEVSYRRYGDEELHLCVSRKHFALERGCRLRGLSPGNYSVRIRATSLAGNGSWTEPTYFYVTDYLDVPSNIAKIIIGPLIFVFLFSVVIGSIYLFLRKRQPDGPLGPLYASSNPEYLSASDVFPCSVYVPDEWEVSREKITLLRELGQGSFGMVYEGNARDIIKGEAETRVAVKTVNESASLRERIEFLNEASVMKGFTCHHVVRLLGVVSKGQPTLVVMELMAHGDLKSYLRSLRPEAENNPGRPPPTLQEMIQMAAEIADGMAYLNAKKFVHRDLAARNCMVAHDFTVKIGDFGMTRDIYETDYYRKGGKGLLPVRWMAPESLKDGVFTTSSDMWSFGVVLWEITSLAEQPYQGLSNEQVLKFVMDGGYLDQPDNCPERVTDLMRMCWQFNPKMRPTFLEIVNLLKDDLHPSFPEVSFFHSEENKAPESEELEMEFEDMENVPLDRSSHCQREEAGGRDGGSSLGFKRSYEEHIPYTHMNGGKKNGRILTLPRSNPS
Sequence of SGK(h) (O00141 whole entry): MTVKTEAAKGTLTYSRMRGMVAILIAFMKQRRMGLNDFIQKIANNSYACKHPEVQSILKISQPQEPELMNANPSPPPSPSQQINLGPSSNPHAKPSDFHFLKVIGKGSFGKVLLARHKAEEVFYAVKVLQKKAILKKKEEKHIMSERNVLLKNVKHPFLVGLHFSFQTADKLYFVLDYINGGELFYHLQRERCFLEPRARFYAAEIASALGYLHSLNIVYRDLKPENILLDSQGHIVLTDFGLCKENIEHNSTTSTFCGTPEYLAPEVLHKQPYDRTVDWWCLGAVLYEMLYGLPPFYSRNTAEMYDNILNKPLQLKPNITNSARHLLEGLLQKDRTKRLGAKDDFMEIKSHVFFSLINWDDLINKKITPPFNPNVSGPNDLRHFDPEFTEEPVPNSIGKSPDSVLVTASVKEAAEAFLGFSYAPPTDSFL
Sequence of Pim-1(h) (P11309 whole entry): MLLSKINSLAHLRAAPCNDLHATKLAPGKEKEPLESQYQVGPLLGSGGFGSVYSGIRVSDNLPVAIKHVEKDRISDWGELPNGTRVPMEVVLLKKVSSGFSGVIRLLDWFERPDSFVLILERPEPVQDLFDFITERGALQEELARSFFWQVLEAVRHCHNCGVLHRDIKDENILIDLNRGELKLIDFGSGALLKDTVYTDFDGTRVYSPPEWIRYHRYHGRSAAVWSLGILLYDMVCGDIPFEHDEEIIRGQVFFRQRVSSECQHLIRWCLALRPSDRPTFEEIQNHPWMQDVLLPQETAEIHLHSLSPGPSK
Sequence of PKCδ(h) (Q05655 whole entry): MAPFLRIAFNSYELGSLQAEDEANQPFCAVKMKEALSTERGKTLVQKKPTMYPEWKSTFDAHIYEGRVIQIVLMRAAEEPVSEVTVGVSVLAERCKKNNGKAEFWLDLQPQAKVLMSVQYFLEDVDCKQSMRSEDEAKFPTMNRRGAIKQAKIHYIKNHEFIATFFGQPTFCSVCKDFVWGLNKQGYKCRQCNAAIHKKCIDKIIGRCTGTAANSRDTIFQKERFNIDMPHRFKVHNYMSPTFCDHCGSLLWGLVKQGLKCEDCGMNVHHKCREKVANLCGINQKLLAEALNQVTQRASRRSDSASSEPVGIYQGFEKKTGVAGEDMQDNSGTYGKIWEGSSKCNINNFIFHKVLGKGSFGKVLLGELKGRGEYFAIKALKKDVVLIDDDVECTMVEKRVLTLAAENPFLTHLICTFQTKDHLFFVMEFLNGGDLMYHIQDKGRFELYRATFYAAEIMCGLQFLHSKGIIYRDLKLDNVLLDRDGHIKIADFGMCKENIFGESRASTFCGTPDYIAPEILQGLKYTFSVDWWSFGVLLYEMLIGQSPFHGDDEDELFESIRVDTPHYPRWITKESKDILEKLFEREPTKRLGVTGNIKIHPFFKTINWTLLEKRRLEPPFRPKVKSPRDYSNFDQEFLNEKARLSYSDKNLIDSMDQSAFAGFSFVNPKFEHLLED
Sequence of Flt3(h) (P36888 27-993): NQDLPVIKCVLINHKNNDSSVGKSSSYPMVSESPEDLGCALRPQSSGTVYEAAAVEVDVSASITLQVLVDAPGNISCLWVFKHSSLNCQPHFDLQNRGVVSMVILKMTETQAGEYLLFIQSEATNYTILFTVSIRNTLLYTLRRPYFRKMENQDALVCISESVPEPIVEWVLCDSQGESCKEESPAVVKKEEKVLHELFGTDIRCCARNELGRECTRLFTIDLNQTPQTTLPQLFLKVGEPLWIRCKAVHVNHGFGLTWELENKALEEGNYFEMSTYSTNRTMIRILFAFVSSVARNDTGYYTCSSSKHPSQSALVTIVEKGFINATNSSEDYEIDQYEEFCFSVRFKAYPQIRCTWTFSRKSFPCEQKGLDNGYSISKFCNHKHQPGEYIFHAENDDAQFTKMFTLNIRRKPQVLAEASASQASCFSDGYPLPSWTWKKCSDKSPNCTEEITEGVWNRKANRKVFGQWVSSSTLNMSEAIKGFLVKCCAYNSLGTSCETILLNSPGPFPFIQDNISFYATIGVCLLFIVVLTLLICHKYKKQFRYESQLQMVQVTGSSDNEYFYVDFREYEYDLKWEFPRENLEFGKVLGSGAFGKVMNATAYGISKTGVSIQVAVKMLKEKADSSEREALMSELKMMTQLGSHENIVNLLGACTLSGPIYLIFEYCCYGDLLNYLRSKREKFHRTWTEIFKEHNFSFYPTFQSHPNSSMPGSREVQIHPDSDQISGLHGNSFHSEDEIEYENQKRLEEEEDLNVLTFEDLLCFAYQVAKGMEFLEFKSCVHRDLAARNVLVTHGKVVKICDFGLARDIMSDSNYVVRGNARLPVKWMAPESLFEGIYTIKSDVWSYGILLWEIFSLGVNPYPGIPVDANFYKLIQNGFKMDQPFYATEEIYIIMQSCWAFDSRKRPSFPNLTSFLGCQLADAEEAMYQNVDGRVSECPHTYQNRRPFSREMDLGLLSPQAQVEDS

O=C(O)[C@H]1O[C@@H](Oc2ccc(/C=C/c3cc(O)cc(O)c3)cc2)[C@H](O)[C@@H](O)[C@@H]1O [Res 4′-Gluc, resveratrol-4-glucuronide]
percent activity of Abl(h) (Abl(h)): 97%
percent activity of Abl(T315I)(h) (Abl(T315I)(h)): 93%
percent activity of Flt3(h) (Flt3(h)): 48%
percent activity of IR(h) (IR(h)): 80%
percent activity of JAK2(h) (JAK2(h)): 95%
percent activity of PAK2(h) (PAK2(h)): 105%
percent activity of PAK3(h) (PAK3(h)): 75%
percent activity of PDK1(h) (PDK1(h)): 97%
percent activity of Pim-1(h) (Pim-1(h)): 31%
percent activity of PKCβI(h) (PKCβI(h)): 119%
percent activity of PKCγ(h) (PKCγ(h)): 77%
percent activity of PKCδ(h) (PKCδ(h)): 110%
percent activity of PKCθ(h) (PKCθ(h)): 103%
percent activity of PKCζ(h) (PKCζ(h)): 104%
percent activity of PKD2(h) (PKD2(h)): 113%
percent activity of Rsk2(h) (Rsk2(h)): 100%
percent activity of SGK(h) (SGK(h)): 48%

Oc1ccc(C=Cc2cc(O)cc(O)c2)cc1 [resveratrol, 3,5,4′-trihydroxystilbene]
percent activity of IR(h) (IR(h)): 71%
percent activity of PDK1(h) (PDK1(h)): 108%
percent activity of Pim-1(h) (Pim-1(h)): 6%
inhibition at 20 µM (Rsk2(h)): 68%
percent activity of Rsk2(h) (Rsk2(h)): 32%
percent activity of SGK(h) (SGK(h)): 86%
expression level of IRS-1 (IRS-1; approximately 22 mg/kg resveratrol added to diet): significantly reduced
proportion of phosphorylated IRS-1 (PIRS-1, serine 307) (IRS-1; resveratrol treatment): increases
inhibition of FL5.12 cell growth (FL5.12 cells): dose dependent inhibition
